Experimental data as given in US11911349B2, “Rapidly improving vascular conditions by administering vitamin K” (NATTOPHARMA AS, priority 2018, dated 2024).

How the values were obtained:
[1] = tested on: kidney transplantation patients; test: Clinical study: pulse wave velocity measurement of arterial stiffness in kidney transplantation patients; format: in vivo, human; conditions: 360 ug/day for 8 weeks, kidney transplant patients
Description: Clinical Study to study the efficacy and safety of Vitamin K2 supplementation on arterial stiffness, the rigidity of arterial walls, in kidney transplantation patients.
A clinical study was carried out. Arterial wall property measurements were taken at t=0 and t=8 weeks and show a dramatic improvement in arterial wall flexibility. This is good support for concluding that the ingestion of vitamin K, even over this short period, is an effective way of improving endothelial function, reducing arterial stiffness and reducing calcification. […] It is surprising and unexpected because calcification is a slow progressive process and it was thought that reversing this process would also be slow and progressive.
(§1) Participants were enrolled in a clinical trial in which the effects of vitamin K2 were determined for patients who had recently undergone a kidney transplant. At the beginning of the study, patients were subjected to a non-invasive pulse wave velocity measurement to measure arterial stiffness/flexibility, as well as blood analysis. The study participants were then instructed to receive a specific daily dose of MenaQ7 vitamin K2 menaquinone-7 (360 ug/day) for a total of 8 weeks. At the end of 8 weeks, patients were again examined with a follow-up examination, a non-invasive pulse wave velocity measurement and blood analysis and drug treatment was discontinued.

[2] = tested on: matrix gla protein (MGP); test: Clinical study: blood analysis of matrix gla protein (MGP) carboxylation; format: in vivo, human; conditions: 360 ug/day for 8 weeks, kidney transplant patients
Description: as §1
As part of the blood analysis, carboxylated matrix gla protein (MGP) was measured as a direct measure of vitamin K2 activity. The carboxylated MGP inhibits calcification of blood vessels and Vitamin K2 stimulates carboxylation of MGP.

CC(C)=CCC/C(C)=C/CC/C(C)=C/CC/C(C)=C/CC/C(C)=C/CC/C(C)=C/CC/C(C)=C/CC1=C(C)C(=O)c2ccccc2C1=O [MenaQ7, menaquinone-7]
mean reduction in measured pulse-wave velocity [1]: 30% | mean reduction of levels of uncarboxylated MGP [2]: 55%
